Experimental data taken from PubChem BioAssay AID1552 (Sanford-Burnham Center for Chemical Genomics, 2009).
Active and inactive are the calls of the source. The rule behind the calls is not given here.

The compounds below were run against Ubiquitin-conjugating enzyme E2 N (Homo sapiens) (UniProt P61088) (assay: NMR detection of UBE2N ligand binding – biophysical, purified protein (AID 1552)). Conditions: NMR binding to purified UBE2N.
Chain of Ubiquitin-conjugating enzyme E2 N (Homo sapiens) (P61088 whole entry, looked up): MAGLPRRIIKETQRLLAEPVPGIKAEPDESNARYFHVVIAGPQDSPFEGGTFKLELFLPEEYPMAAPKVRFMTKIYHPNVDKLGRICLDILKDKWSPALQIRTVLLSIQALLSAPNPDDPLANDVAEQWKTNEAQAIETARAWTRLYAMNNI

Compound	Kd
COc1ccc(-c2cc(=O)c3c(OC)c(OC)c(OC)c(OC)c3o2)cc1OC	> 4 mM (inactive)
O=C(Nc1ccccc1[N+](=O)[O-])c1ccc(=O)[nH]n1	> 4 mM (inactive)
NC1=NC(=O)C(Cc2ccccc2)S1 (configuration not stated)	> 4 mM (inactive)
CC12OC(=O)CC3C(C)(C)[C@H](O)C=C[C@]3(C)C1CC[C@]1(C)C2=CC(=O)O[C@H]1c1ccoc1 (some centres not stated)	> 4 mM (inactive)
OCC12COC3c4ccccc4C(OC1)N32 (configuration not stated)	> 4 mM (inactive)
NC(=O)C1CCN(C(=S)Nc2ccccc2)CC1	> 4 mM (inactive)
OCc1cccc2nonc12	> 4 mM (inactive)
CC(C)Oc1ccc(NC(N)=O)cc1	> 4 mM (inactive)
C=C1[C@H]2CC[C@@]3(C)[C@H](c4ccoc4)OC(=O)C[C@]13O[C@H]1C[C@H](O)C(C)(C)[C@H](CC(=O)OC)[C@]12C	> 4 mM (inactive)
CNC(=O)C(=O)NCc1ccc(C)cc1	> 4 mM (inactive)
CSc1ncc(C(=O)O)n1Cc1ccccc1	> 4 mM (inactive)
NC(=O)NC(=O)Nc1ccc(Cl)cc1	> 4 mM (inactive)
Cc1noc(C)c1C(=O)N1CCN(c2ncccn2)CC1	> 4 mM (inactive)
CC(=O)N1CC2(C)CN(C(C)=O)CC(C)(C1)C2	> 4 mM (inactive)
O=C(Oc1ccc(-c2nnco2)cc1)N1CCCCC1	> 4 mM (inactive)
CC(C)(C)P(=O)(O)c1ccccc1	> 4 mM (inactive)
O=c1ccc2cc(O)c(O)cc2o1	> 4 mM (inactive)
O=C(NCc1cccnc1)c1ccccn1	> 4 mM (inactive)
CNC(=O)c1cccc(NC(=S)NC)c1	> 4 mM (inactive)
O=C1COc2ccccc2C(=O)N1	> 4 mM (inactive)
O=C(O)CN(CCCc1ccccc1)CC(=O)O	> 4 mM (inactive)
Cc1nc(-c2cc(CO)no2)cs1	> 4 mM (inactive)
C=C1C2CC[C@@]3(C)[C@H](c4ccoc4)OC(=O)C[C@]13O[C@H]1C[C@H](OC(C)=O)C(C)(C)[C@H](CC(=O)OC)[C@@]21C	> 4 mM (inactive)
CC(C)(O)[C@@H]1Cc2cc3ccc(=O)oc3cc2O1	> 4 mM (inactive)

Compound	Kd
CCOc1cccc(C(=O)c2ccc(O)c(O)c2O)c1	> 4 mM (inactive)
COc1c2ccoc2cc2oc(=O)ccc12	> 4 mM (inactive)
CC(=O)CC1(O)C(=O)Nc2ccccc21 (configuration not stated)	> 4 mM (inactive)
Cn1cnc2c(Cl)ncnc21	> 4 mM (inactive)
CCSc1nc2ccccc2[nH]1	> 4 mM (inactive)
CC(=O)c1ccc(NS(=O)(=O)c2cccc(C)c2)cc1	> 4 mM (inactive)
COc1cc(C(=O)O[C@H]2CC[C@@]3(C)[C@@H]4CC[C@H]5[C@]6(O)C[C@H](O)[C@@]7(O)[C@@H](CN8C[C@@H](C)CC[C@H]8[C@@]7(C)O)[C@]6(O)C[C@@]53OC24O)cc(OC)c1OC	> 4 mM (inactive)
NCCc1cnc[nH]1	> 4 mM (inactive)
Cc1n[nH]c(C)c1CC(=O)O	> 4 mM (inactive)
CC(=O)Nc1cc(S(=O)(=O)N(C)C)ccc1Cl	> 4 mM (inactive)
COC(=O)c1oc2ccc(Cl)cc2c1NC(C)=O	> 4 mM (inactive)
O=C(Nc1cnccn1)c1cccnc1	> 4 mM (inactive)
Nc1nc2[nH]c(=O)c(=O)[nH]c2c(=O)[nH]1	> 4 mM (inactive)
COC(=O)c1cc2cc(N)ccc2s1	> 4 mM (inactive)
O=C(O)CSc1nnc(-c2cccs2)o1	> 4 mM (inactive)
O=C(c1ncc[nH]1)c1ccccc1C(=O)N1CCOCC1	> 4 mM (inactive)
Cc1ccc(S(=O)(=O)CC(=O)N2CCCC2)cc1	> 4 mM (inactive)
COC(=O)C1CSCC1=O (configuration not stated)	> 4 mM (inactive)
COC(=O)c1c(OC)cc2c(c1C)Oc1c(Cl)c(O)c(Cl)c(C)c1C(=O)O2	> 4 mM (inactive)
O=C(O)/C=C/C(=O)Nc1ccccc1C(F)(F)F	> 4 mM (inactive)
C=C[C@H]1CN2CC[C@H]1C[C@@H]2[C@@H](O)c1ccnc2ccc(OC)cc12	> 4 mM (inactive)
O=C1NCCCC1C(=O)N1CCCCC1 (configuration not stated)	> 4 mM (inactive)
CCCCCCCCCCCC[C@H](C(=O)O)[C@@H](C)C(=O)O	> 4 mM (inactive)
CCC(=O)NC(=S)Nc1ccc(N2CCOCC2)cc1	> 4 mM (inactive)

Compound	Kd
O=C1CSC(=O)N1CN1CCOCC1	> 4 mM (inactive)
Cc1cc(C)n(C2CCS(=O)(=O)C2)n1 (configuration not stated)	> 4 mM (inactive)
Cc1cc(N)no1	> 4 mM (inactive)
NC(=O)CCN1C(=O)c2ccccc2C1=O	> 4 mM (inactive)
CC(=O)Nc1ccc(NC(=O)/C=C\C(=O)O)cc1	> 4 mM (inactive)
NC(=O)CSc1nc2ccccc2c(=O)[nH]1	> 4 mM (inactive)
CC(=O)c1cnc(Nc2nc(C)c3ccccc3n2)nc1C	> 4 mM (inactive)
CC(C)[C@@H]1CC[C@@H](C)C[C@H]1O	> 4 mM (inactive)
O=C(Nc1ccccn1)c1cc(-n2cnnc2)ccc1Cl	> 4 mM (inactive)
NC(=O)c1ccc(N2CCCCC2)c(N)c1	> 4 mM (inactive)
COc1cc([C@H]2Oc3cc([C@H]4Oc5cc(O)cc(O)c5C(=O)[C@@H]4O)ccc3O[C@@H]2CO)ccc1O	> 4 mM (inactive)
Cc1cc(C)nc(NC(N)=NCc2ccco2)n1	> 4 mM (inactive)
Cc1nc2sccn2c1C(=O)O	> 4 mM (inactive)
COc1ccccc1NC(=O)c1ccc(C)s1	> 4 mM (inactive)
O=C(Nc1c[nH]c(=O)[nH]c1=O)c1ccccc1F	> 4 mM (inactive)
O=c1cc(O)n(-c2ccc(F)cc2)c(=S)[nH]1	> 4 mM (inactive)
CC(=O)c1c(C)nc(C)nc1NC(=O)C(C)C	> 4 mM (inactive)
CCOc1cc(S(=O)(=O)N2CCOCC2)ccc1F	> 4 mM (inactive)
CN1CN(Cc2ccccc2)CN/C1=N/[N+](=O)[O-]	> 4 mM (inactive)
Nc1ccc(-c2cn3c(n2)SCC3)cc1	> 4 mM (inactive)
Nc1cc(=O)[nH]c(SCC(=O)NC2CCCCC2)n1	> 4 mM (inactive)
Oc1ccccc1N=Cc1cccnc1	> 4 mM (inactive)
O=C(Nn1cnnc1)c1cccc(C(F)(F)F)c1	> 4 mM (inactive)
Clc1ccccc1OCCn1ccnc1	> 4 mM (inactive)

Compound	Kd
O=C1CCC(=O)N1c1ccc(O)cc1	> 4 mM (inactive)
O=C1NC(=Nc2ccccc2Cl)SC1(CO)CO	> 4 mM (inactive)
O=C(O)CCCN1CNC(=S)NC1	> 4 mM (inactive)
O=C(Nc1cccc(Cl)c1)c1cnn2cccnc12	> 4 mM (inactive)
CN(C)/C=N/S(=O)(=O)c1ccccc1	> 4 mM (inactive)
CCC(C)C(=O)O[C@@H]1C[C@@]2(C)[C@H](c3ccoc3)OC(=O)CC23OC2(C)O[C@]14[C@]1(C)[C@@H](CC(=O)OC)C5(C)CC1(O)[C@](O)(C5OC(=O)C1(C)OC1C)[C@@H](OC(C)=O)[C@]34O2 (some centres not stated)	> 4 mM (inactive)
O=C(CSc1ccc(Cl)cc1)N1CCOCC1	> 4 mM (inactive)
CS(=O)(=O)Nc1nnc(Cc2ccccc2)s1	> 4 mM (inactive)
COc1cc2c(cc1OC)[C@@H]1C(=O)c3ccc4c(c3O[C@@H]1CO2)C=CC(C)(C)O4	> 4 mM (inactive)
O=C(Nc1ccc2c(c1)OCO2)c1cccc(F)c1	> 4 mM (inactive)
N#Cc1c[nH]n2c(=O)cc(Cc3ccccc3)nc12	> 4 mM (inactive)
COC(=O)c1cc(-c2c(C)nn(-c3ccccc3)c2C)n[nH]1	> 4 mM (inactive)
CC(=O)O[C@H]1C[C@@H](OC(C)=O)C(C)(C)C2C[C@@H](O)[C@]3(C)C(CC[C@@]4(C)[C@H](c5ccoc5)OC(=O)[C@H]5O[C@]543)[C@]21C (some centres not stated)	> 4 mM (inactive)
S=C1NC(=S)NC(c2ccc3c(c2)OCO3)N1	> 4 mM (inactive)
COC(=O)c1cccs1	> 4 mM (inactive)
Cc1ccc(-n2cnnn2)c2cccnc12	> 4 mM (inactive)
CN1CCC(NC(=O)c2ccccc2[N+](=O)[O-])CC1	> 4 mM (inactive)
O=C1CCC(=O)N1c1nc2ccccc2s1	> 4 mM (inactive)
CC(C)n1c(-c2ccncc2)n[nH]c1=S	> 4 mM (inactive)
CC(NC(=O)C1CCCCC1)C(=O)NC1=NCCS1 (configuration not stated)	> 4 mM (inactive)
CN(C)C(=S)Nc1ccc([N+](=O)[O-])cc1	> 4 mM (inactive)
O=c1[nH]nc(Cc2ccncc2)c2ccccc12	> 4 mM (inactive)
O=C(Nc1nnc(C(F)(F)F)s1)c1cccnc1	> 4 mM (inactive)
Cc1cc(CN2C(=O)c3ccccc3C2=O)on1	> 4 mM (inactive)

Compound	Kd
CC1=CC(=O)NC2C=CC=CC12 (configuration not stated)	> 4 mM (inactive)
COc1ccc(C(=O)O)cc1OC	> 4 mM (inactive)
Cc1nc(-c2ccccc2)ncc1C(=O)O	> 4 mM (inactive)
O=C(Nn1cnnc1)c1csc2ccccc12	> 4 mM (inactive)
COC(=O)CCSCC(=O)Nc1nnc(C)s1	> 4 mM (inactive)
O=[n+]1cc(C2=CC=CCC2)n([O-])c2c1CCCCC2	> 4 mM (inactive)
CNC(=S)Nc1cccc(C(=O)O)c1	> 4 mM (inactive)
CC(=O)Nc1ccc(S(=O)(=O)NC(N)=O)cc1	> 4 mM (inactive)
O=C(O)C1CC(=O)N(C2Cc3ccccc3C2)C1 (configuration not stated)	> 4 mM (inactive)
CS(=O)(=O)CCCCN=C=S	> 4 mM (inactive)
Cc1ccc(SCC(=O)N2CCOCC2)cc1	> 4 mM (inactive)
CCCc1ncc(C(O)c2cccc3ccccc23)n1C (configuration not stated)	> 4 mM (inactive)
O=C(O)Cn1cc(C(=O)c2cccs2)c2ccccc21	> 4 mM (inactive)
c1ccc(-c2noc(-c3cccnc3)n2)nc1	> 4 mM (inactive)
O=c1c2ccccc2oc2ccccc12	> 4 mM (inactive)
COC(=O)c1c(C)cc(OC)cc1O	> 4 mM (inactive)
COCC(=O)Nc1ccc(C)c(Cl)c1	> 4 mM (inactive)
Cn1c2c(c(=O)n(C)c1=O)CN(Cc1ccco1)CN2	> 4 mM (inactive)
NCCc1c[nH]c2ccccc12	> 4 mM (inactive)
O=C(CC1SC(=O)NC1=O)Nc1nccs1 (configuration not stated)	> 4 mM (inactive)
O=C(O)CCC(=O)Nc1nccs1	> 4 mM (inactive)
